Assay results as given in ChEMBL document CHEMBL1201862, “PubChem BioAssay data set” (2004).
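Five concentrations, 48 hours, 96-well plates. Abbreviation: GI50, concentration required for 50% inhibition of growth.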 Calls of active or inactive are those of the source. Cut-off read from the data, not from the text of the source: active = GI50 up to about 1.1 µM and inactive = higher.

Tests used:
Test in all cases: NCI tumour cell line growth inhibition, 48 h
HL-60 = system: HL-60
UO-31 = system: UO-31
EKVX = system: EKVX
SR = system: SR
SNB-19 = system: SNB-19
HOP-92 = system: HOP-92
U-251 = system: U-251
MOLT-4 = system: MOLT-4
UACC-257 = system: UACC-257
IGROV-1 = system: IGROV-1
KM12 = system: KM12
HCT-116 = system: HCT-116
A549 = system: A549
SNB-75 = system: SNB-75
SW-620 = system: SW-620
CCRF-CEM = system: CCRF-CEM
HCT-15 = system: HCT-15
MDA-N = system: MDA-N
MCF7 = system: MCF7
PC-3 = system: PC-3

Row | Compound | GI50 (HL-60) | GI50 (UO-31) | GI50 (EKVX) | GI50 (SR) | GI50 (SNB-19) | GI50 (HOP-92) | GI50 (U-251) | GI50 (MOLT-4) | GI50 (UACC-257) | GI50 (IGROV-1) | GI50 (KM12) | GI50 (HCT-116) | GI50 (A549) | GI50 (SNB-75) | GI50 (SW-620) | GI50 (CCRF-CEM) | GI50 (HCT-15) | GI50 (MDA-N) | GI50 (MCF7) | GI50 (PC-3)
1 | NC(=O)c1ncn(C2OC(CO)C(O)C2O)c1NC(=S)NC(=O)c1ccccc1 (stereo unspecified) | > 100 µM (inactive) | > 100 µM (inactive) | > 100 µM (inactive) | > 100 µM (inactive) | > 100 µM (inactive) | > 100 µM (inactive) | > 100 µM (inactive) | > 100 µM (inactive) | > 100 µM (inactive) | > 100 µM (inactive) | > 100 µM (inactive) | > 100 µM (inactive) | > 100 µM (inactive) | > 100 µM (inactive) | > 100 µM (inactive) | > 100 µM (inactive) | – | – | – | –
2 | O=C1C(Cl)N(c2c(Cl)cccc2Cl)C1c1c[nH]c2ccccc12 (stereo unspecified) | > 100 µM (inactive) | > 100 µM (inactive) | > 100 µM (inactive) | > 100 µM (inactive) | > 100 µM (inactive) | > 100 µM (inactive) | > 100 µM (inactive) | > 100 µM (inactive) | > 100 µM (inactive) | > 100 µM (inactive) | > 100 µM (inactive) | > 100 µM (inactive) | > 100 µM (inactive) | > 100 µM (inactive) | > 100 µM (inactive) | > 100 µM (inactive) | – | – | – | –
3 | CCCc1onc(CCC(=O)N(Cc2ccccc2)Cc2ccccc2)c1CC | > 100 µM (inactive) | – | – | – | – | 48.8 µM (inactive) | > 100 µM (inactive) | > 100 µM (inactive) | > 100 µM (inactive) | > 100 µM (inactive) | > 100 µM (inactive) | – | – | – | – | > 100 µM (inactive) | > 100 µM | – | – | –
4 | Cc1cc(C)nc(NS(=O)(=O)c2ccc(Nc3c4ccccc4nc4c(C(=O)N5CCN(CCOS(C)(=O)=O)CC5)ccc(Cl)c34)cc2)n1 | > 100 µM (inactive) | > 100 µM (inactive) | – | > 100 µM (inactive) | > 100 µM (inactive) | > 100 µM (inactive) | > 100 µM (inactive) | > 100 µM (inactive) | > 100 µM (inactive) | > 100 µM (inactive) | > 100 µM (inactive) | > 100 µM (inactive) | > 100 µM (inactive) | > 100 µM (inactive) | – | > 100 µM (inactive) | > 100 µM | – | – | –
5 | O=C(O)CCC(=O)N1c2ccccc2CC1c1c[nH]c2ccccc12 (stereo unspecified) | > 100 µM (inactive) | 33.2 µM (inactive) | > 100 µM (inactive) | – | > 100 µM (inactive) | > 100 µM (inactive) | > 100 µM (inactive) | > 100 µM (inactive) | > 100 µM (inactive) | > 100 µM (inactive) | 65.6 µM (inactive) | > 100 µM (inactive) | > 100 µM (inactive) | > 100 µM (inactive) | > 100 µM (inactive) | > 100 µM (inactive) | > 100 µM | – | – | –
6 | COc1cc(CCc2ccc(OCCN(C)C)cc2)cc(OC)c1OC | 33.7 µM (inactive) | 49.9 µM (inactive) | > 100 µM (inactive) | 49.8 µM (inactive) | > 100 µM (inactive) | 52.4 µM (inactive) | > 100 µM (inactive) | 32.6 µM (inactive) | 72.4 µM (inactive) | > 100 µM (inactive) | > 100 µM (inactive) | 60.4 µM (inactive) | > 100 µM (inactive) | 45.1 µM (inactive) | > 100 µM (inactive) | > 100 µM (inactive) | > 100 µM | – | – | –
7 | C/C(=C/C(=O)N(C)c1ccccc1Cl)O[Si](C(C)C)(C(C)C)C(C)C | – | 19.9 µM (inactive) | 26.4 µM (inactive) | – | 23.7 µM (inactive) | 16.1 µM (inactive) | 20 µM (inactive) | 40.4 µM (inactive) | 24.8 µM (inactive) | 23.1 µM (inactive) | 32.4 µM (inactive) | 17.8 µM (inactive) | 36.1 µM (inactive) | 29.4 µM (inactive) | 19.4 µM (inactive) | – | 18.2 µM | 21.3 µM (inactive) | – | –
8 | CCCCCCCCCCCC1CCCC(C)N1 (stereo unspecified) | 10.8 µM (inactive) | 41 µM (inactive) | 47.3 µM (inactive) | – | 76.2 µM (inactive) | 17.7 µM (inactive) | 59.3 µM (inactive) | 15.9 µM (inactive) | 45.8 µM (inactive) | 61.2 µM (inactive) | 30.9 µM (inactive) | 36.8 µM (inactive) | 88.7 µM (inactive) | 65.8 µM (inactive) | 58.3 µM (inactive) | 23.3 µM (inactive) | 38.5 µM | – | 50 µM (inactive) | –
9 | Fc1ccc(C(OCCN2CC3CC2CN3)c2ccc(F)cc2)cc1 (stereo unspecified) | 20.5 µM (inactive) | – | – | 27.5 µM (inactive) | – | 69.2 µM (inactive) | 48.5 µM (inactive) | 43.1 µM (inactive) | 18.3 µM (inactive) | 53.3 µM (inactive) | 39.6 µM (inactive) | – | – | 66.4 µM (inactive) | > 100 µM (inactive) | 35.3 µM (inactive) | 60.5 µM | – | 33.7 µM (inactive) | 59.2 µM (inactive)
10 | O=c1c(-c2ccccc2)c(SCCCN2CCN(c3cccc(Cl)c3)CC2)n(-c2ccccc2)c(=S)n1-c1ccccc1 | > 100 µM (inactive) | – | > 100 µM (inactive) | 29 µM (inactive) | – | > 100 µM (inactive) | > 100 µM (inactive) | > 100 µM (inactive) | > 100 µM (inactive) | > 100 µM (inactive) | 46.5 µM (inactive) | – | – | > 100 µM (inactive) | > 100 µM (inactive) | > 100 µM (inactive) | > 100 µM | – | > 100 µM (inactive) | > 100 µM (inactive)
11 | C[C@@]12CC[C@H]3[C@@H]4CCC(=O)N[C@@]4(C)CC[C@@H]3[C@@]1(C)CC[C@H](OC(=O)Cc1ccc(N(CCCl)CCCl)cc1)C2 | – | 17.8 µM (inactive) | 16.4 µM (inactive) | – | > 10 µM (inactive) | 19 µM (inactive) | 15 µM (inactive) | 10.1 µM (inactive) | 24.8 µM (inactive) | 16.2 µM (inactive) | 22.7 µM (inactive) | 16.4 µM (inactive) | 15.7 µM (inactive) | 18.3 µM (inactive) | 18.2 µM (inactive) | 11.5 µM (inactive) | 17.6 µM | – | 11.7 µM (inactive) | –
12 | CCCCCCCCCCCCCCCCNCCCN(C)CCCN | 18.6 µM (inactive) | 17.3 µM (inactive) | 20.5 µM (inactive) | 21 µM (inactive) | 17.1 µM (inactive) | – | 17.3 µM (inactive) | 28.8 µM (inactive) | 22 µM (inactive) | 20.3 µM (inactive) | 18.4 µM (inactive) | 18.7 µM (inactive) | 16.7 µM (inactive) | 18.2 µM (inactive) | 18.5 µM (inactive) | – | 17.2 µM | – | – | –
13 | O=c1c(C(c2ccc3ccccc3c2)c2c(O)oc3cc(O)ccc3c2=O)c(O)oc2cc(O)ccc12 | 38.5 µM (inactive) | 5.22 µM (inactive) | > 100 µM (inactive) | 26.6 µM (inactive) | 11.2 µM (inactive) | 75 µM (inactive) | 41.5 µM (inactive) | 44.4 µM (inactive) | > 100 µM (inactive) | > 100 µM (inactive) | 30.6 µM (inactive) | > 100 µM (inactive) | > 100 µM (inactive) | 17.5 µM (inactive) | > 100 µM (inactive) | 43.2 µM (inactive) | > 100 µM | – | 43.2 µM (inactive) | > 100 µM (inactive)
14 | CNC(C)C(O)c1ccc2oc3cc(=O)c4ccccc4c-3nc2c1 (stereo unspecified) | 21.8 µM (inactive) | 13.8 µM (inactive) | 40 µM (inactive) | – | 6.44 µM (inactive) | 94.6 µM (inactive) | 4.34 µM (inactive) | 19.4 µM (inactive) | 5.37 µM (inactive) | 31.5 µM (inactive) | 9.84 µM (inactive) | 5.24 µM (inactive) | 5.13 µM (inactive) | – | 6.35 µM (inactive) | 5.52 µM (inactive) | 4.83 µM | – | 18.9 µM (inactive) | 32.6 µM (inactive)
15 | CCCCN(CCCC)C1=Nc2ccccc2-n2c(nnc2C(=O)OCC)C1 | 15.6 µM (inactive) | 31.8 µM (inactive) | 71.9 µM (inactive) | 19.1 µM (inactive) | 91.2 µM (inactive) | 33.6 µM (inactive) | – | 27 µM (inactive) | 17.4 µM (inactive) | 35.9 µM (inactive) | 29.4 µM (inactive) | 27.4 µM (inactive) | 33.9 µM (inactive) | 33.1 µM (inactive) | 58.3 µM (inactive) | 43.5 µM (inactive) | – | – | 37.2 µM (inactive) | 17.4 µM (inactive)
16 | Cn1c(=O)nc2n(-c3ccc(F)cc3)c3ccccc3nc-2c1=O | – | 38.4 µM (inactive) | 16.4 µM (inactive) | – | 13.9 µM (inactive) | – | 21.5 µM (inactive) | 25.7 µM (inactive) | 14.4 µM (inactive) | 24 µM (inactive) | 24.7 µM (inactive) | 17.5 µM (inactive) | 18.3 µM (inactive) | 31 µM (inactive) | 18.8 µM (inactive) | 26.6 µM (inactive) | 16.4 µM | – | – | –
17 | CC1=C(Oc2ccccc2)C(CCC(=O)O)c2c(O)cc(Cl)c(O)c21 (stereo unspecified) | > 100 µM (inactive) | > 100 µM (inactive) | 71.9 µM (inactive) | > 100 µM (inactive) | > 100 µM (inactive) | > 100 µM (inactive) | > 100 µM (inactive) | > 100 µM (inactive) | > 100 µM (inactive) | > 100 µM (inactive) | > 100 µM (inactive) | > 100 µM (inactive) | > 100 µM (inactive) | – | > 100 µM (inactive) | > 100 µM (inactive) | > 100 µM | – | – | –
18 | CCCNC1=Nc2ccccc2N(Cc2ccccc2)CC1 | 12.9 µM (inactive) | 30.3 µM (inactive) | 30.5 µM (inactive) | – | 22.2 µM (inactive) | – | 18 µM (inactive) | 10.9 µM (inactive) | 14.4 µM (inactive) | 4.54 µM (inactive) | 22.5 µM (inactive) | 29.7 µM (inactive) | 35.4 µM (inactive) | 5.62 µM (inactive) | 23.7 µM (inactive) | 21 µM (inactive) | 20.7 µM | 26 µM (inactive) | – | 19.3 µM (inactive)
